The source of these data is patent US7678390B2, “Carbon monoxide as a biomarker and therapeutic agent” (priority 1999, dated 2010).

For the assay, the system named is rats exposed to hyperoxia (>98% O2). It counts as in vivo, rat. The text has this:
Animals were exposed to >98% O2 or 98% O2+CO mixtures at a flow rate of 12 liters/min in a 3.70-cubic-foot glass exposure chamber. Animals were supplied food and water during the exposures. CO at a concentration of 1% (10,000 ppm) in compressed air was mixed with >98% O2 in a stainless steel mixing cylinder prior to entering the exposure chamber. By varying the flow rates of CO into the mixing cylinder, concentrations delivered to the exposure chamber were controlled. Because the flow rate was primarily determined by the O2 flow, only the CO flow was changed to generate the different concentrations delivered to the exposure chamber. A carbon monoxide analyzer (Interscan Corporation, Chatsworth, Calif.) was used to measure CO levels continuously in the chamber. Gas samples were taken by the analyzer through a port in the top of the exposure chamber at a rate of 1 liter/min and analyzed by electrochemical detection with a sensitivity of 10 ppm to 600 ppm. CO levels in the chamber were recorded at hourly intervals and there were no changes in chamber CO concentrations once the chamber had equilibrated. O2 concentrations in the chamber were determined using a gas spectrometer.
Lungs were fixed by perfusion with 10% formalin at 20 cm H2O pressure and embedded in paraffin. Lung sections of […] were mounted onto slides pretreated with 3-aminopropylethoxysilane (Digene Diagnostics, Inc., Beltsville, Md.). Slides were baked for 30 min at 60° C. and washed twice in fresh xylene for 5 min to remove the paraffin. The slides were then rehydrated though a series of graded alcohols and then washed in distilled water for 3 min prior to staining with hematoxylin and eosin.
Animals were anesthesized with sodium pentobarbital 24 h after LPS administration or 56 h of hyperoxia exposure. BAL (35 ml/kg) was performed 4 times with PBS (pH 7.4). Cells were pooled from the lavages and centrifuged at 1200 g for 10 min. The supernatant was discarded and cells were resuspended in PBS. Cell counts were performed using a Neubaur hemocytometer. For differential analysis, samples were cytocentrifuged and stained with Diff-Quik. Measurement of Injury Markers Rats were removed at 56 h of hyperoxia and anesthetized with sodium pentobarbital. The pleural effusion was collected by inserting an 18 gauge needle and 10 cc syringe through the diaphragm and withdrawing all fluid present in the pleural cavity. BAL was performed as described above, and the first lavage was centrifuged at 1200 g for 10 min and the supernatant was assayed for the protein albumin as determined by Bromcresol Green Kit (BCG) from Sigma (St. Louis, Mo.). Arterial Blood Oxygen Tension and Carboxyhemoglobin Determination Indwelling catheters were surgically implanted into the carotid arteries of rats anesthetized with 3% v/v isoflurane. Animals were secured in jackets and tethers to allow movement about the cage and access to food and water which were placed inside the exposure chambers. Polyethelene tubing, connected to the catheter and threaded out through an airtight fitting in the lid of the chamber, was used for continuous heparin infusion throughout the exposure (20 U/ml at 0.1 ml/h) to maintain patency of the vessel. At each time point, 1 cc of blood was drawn into a heparinized syringe, sealed and placed on ice until analyzed for oxygen tension. Arterial oxygen tension and carboxyhemoglobin were determined using a BG3 Instrumentation Laboratory Blood Gas Analyzer and Co-oximeter (Boston, Mass.). […]

[1] abbreviates: hyperoxia in the presence of CO.

In the case of `[C-]#[O+]` [CO, carbon monoxide], for the setting “56 h hyperoxia in the presence of CO (250 ppm)”, the “neutrophil influx into the airways (BAL)” value is given as “significant reductions”. In addition, the lung apoptotic index (56 h hyperoxia in the presence of CO (250 ppm), TUNEL/DAPI) is 1.8%±0.12. The “volume of pleural effusion” value (56 h hyperoxia in the presence of a low concentration of CO) is “marked inhibition”. Under setting [1], the lung histology entry is “completely normal macroscopically and microscopically”; the “protein accumulation into the airways (bronchoalveolar lavage)” value is “significantly lower levels”.
